ChEMBL document CHEMBL1201862, “PubChem BioAssay data set” (2004)
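96-well plates; 48 h exposure; 5 concentrations. Endpoints by linear interpolation between flanking doses. Not reached: highest tested concentration assigned. At the GI50, growth is halved.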 Active and inactive are the calls of the source. Rule as the data show it: active = GI50 up to about 1.1 µM and inactive = higher.

Key:
Test in all cases: DTP human tumour cell line panel, 48 h
SF-268 = system: SF-268
M14 = system: M14
NCI-H226 = system: NCI-H226
NCI-H23 = system: NCI-H23
XF498 = system: XF498
EKVX = system: EKVX
M19-MEL = system: M19-MEL
IGROV-1 = system: IGROV-1
DMS-273 = system: DMS-273
Malme-3M = system: Malme-3M
SF-295 = system: SF-295
HOP-18 = system: HOP-18
TK-10 = system: TK-10
SF-539 = system: SF-539
HT-29 = system: HT-29
SK-MEL-2 = system: SK-MEL-2
NCI-H460 = system: NCI-H460
OVCAR-8 = system: OVCAR-8
SN12C = system: SN12C
SK-MEL-5 = system: SK-MEL-5
HCC 2998 = system: HCC 2998
ACHN = system: ACHN
SNB-75 = system: SNB-75
HOP-92 = system: HOP-92
K562 = system: K562
DMS-114 = system: DMS-114
LXFL 529 = system: LXFL 529
HCT-15 = system: HCT-15
RPMI-8226 = system: RPMI-8226
CCRF-CEM = system: CCRF-CEM
A549 = system: A549
OVCAR-3 = system: OVCAR-3
HL-60 = system: HL-60
COLO 205 = system: COLO 205
U-251 = system: U-251
SK-OV-3 = system: SK-OV-3
SK-MEL-28 = system: SK-MEL-28
OVCAR-5 = system: OVCAR-5
786-0 = system: 786-0
OVCAR-4 = system: OVCAR-4
SNB-78 = system: SNB-78
UACC-257 = system: UACC-257
UO-31 = system: UO-31
HCT-116 = system: HCT-116
DLD-1 = system: DLD-1
KM12 = system: KM12
MOLT-4 = system: MOLT-4
CAKI-1 = system: CAKI-1
SR = system: SR
NCI-H522 = system: NCI-H522
UACC-62 = system: UACC-62
HOP-62 = system: HOP-62
SNB-19 = system: SNB-19
SW-620 = system: SW-620
LOX IMVI = system: LOX IMVI
RXF 393 = system: RXF 393
KM-20L2 = system: KM-20L2

**Q.** How did the GI50 (SF-268) turn out when CC1(S)CC2C(CC1Sc1ccccc1)C2(C)C (stereo unspecified) was run?
**A.** > 100 µM (inactive)

**Q.** What about the GI50 (M14) of the same molecule?
**A.** > 100 µM (inactive)

**Q.** What about the GI50 (NCI-H226) of the same molecule?
**A.** > 100 µM (inactive)

**Q.** And the GI50 (NCI-H23)?
**A.** > 100 µM (inactive)

**Q.** What about the GI50 (XF498) of the same molecule?
**A.** > 100 µM (inactive)

**Q.** What about the GI50 (EKVX) of the same molecule?
**A.** > 100 µM (inactive)

**Q.** And the GI50 (M19-MEL)?
**A.** > 100 µM (inactive)

**Q.** And the GI50 (IGROV-1)?
**A.** > 100 µM (inactive)

**Q.** And the GI50 (DMS-273)?
**A.** > 100 µM (inactive)

**Q.** What about the GI50 (Malme-3M) of the same molecule?
**A.** > 100 µM (inactive)

**Q.** What about the GI50 (SF-295) of the same molecule?
**A.** > 100 µM (inactive)

**Q.** And the GI50 (HOP-18)?
**A.** > 100 µM (inactive)

**Q.** And the GI50 (TK-10)?
**A.** > 100 µM (inactive)

**Q.** And the GI50 (SF-539)?
**A.** > 100 µM (inactive)

**Q.** And the GI50 (HT-29)?
**A.** > 100 µM (inactive)

**Q.** And the GI50 (SK-MEL-2)?
**A.** > 100 µM (inactive)

**Q.** What about the GI50 (NCI-H460) of the same molecule?
**A.** > 100 µM (inactive)

**Q.** What about the GI50 (OVCAR-8) of the same molecule?
**A.** > 100 µM (inactive)

**Q.** What about the GI50 (SN12C) of the same molecule?
**A.** > 100 µM (inactive)

**Q.** And the GI50 (SK-MEL-5)?
**A.** 8.67 µM (inactive)

**Q.** And the GI50 (HCC 2998)?
**A.** > 100 µM (inactive)

**Q.** What about the GI50 (ACHN) of the same molecule?
**A.** > 100 µM (inactive)

**Q.** What about the GI50 (SNB-75) of the same molecule?
**A.** > 100 µM (inactive)

**Q.** And the GI50 (HOP-92)?
**A.** > 100 µM (inactive)

**Q.** What about the GI50 (K562) of the same molecule?
**A.** > 100 µM (inactive)

**Q.** And the GI50 (DMS-114)?
**A.** > 100 µM (inactive)

**Q.** And the GI50 (LXFL 529)?
**A.** > 100 µM (inactive)

**Q.** What about the GI50 (HCT-15) of the same molecule?
**A.** > 100 µM

**Q.** What about the GI50 (RPMI-8226) of the same molecule?
**A.** > 100 µM (inactive)

**Q.** What about the GI50 (CCRF-CEM) of the same molecule?
**A.** > 100 µM (inactive)

**Q.** What about the GI50 (A549) of the same molecule?
**A.** > 100 µM (inactive)

**Q.** What about the GI50 (OVCAR-3) of the same molecule?
**A.** > 100 µM (inactive)

**Q.** And the GI50 (HL-60)?
**A.** > 100 µM (inactive)

**Q.** What about the GI50 (COLO 205) of the same molecule?
**A.** > 100 µM (inactive)

**Q.** What about the GI50 (U-251) of the same molecule?
**A.** > 100 µM (inactive)

**Q.** And the GI50 (SK-OV-3)?
**A.** > 100 µM (inactive)

**Q.** And the GI50 (SK-MEL-28)?
**A.** > 100 µM (inactive)

**Q.** And the GI50 (OVCAR-5)?
**A.** > 100 µM (inactive)

**Q.** And the GI50 (786-0)?
**A.** > 100 µM (inactive)

**Q.** What about the GI50 (OVCAR-4) of the same molecule?
**A.** > 100 µM (inactive)

**Q.** And the GI50 (SNB-78)?
**A.** > 100 µM (inactive)

**Q.** What about the GI50 (UACC-257) of the same molecule?
**A.** > 100 µM (inactive)

**Q.** And the GI50 (UO-31)?
**A.** > 100 µM (inactive)

**Q.** And the GI50 (HCT-116)?
**A.** > 100 µM (inactive)

**Q.** And the GI50 (DLD-1)?
**A.** > 100 µM (inactive)

**Q.** And the GI50 (KM12)?
**A.** > 100 µM (inactive)

**Q.** And the GI50 (MOLT-4)?
**A.** > 100 µM (inactive)

**Q.** What does the source list for CN(C)CCS/C(=N\c1ccccc1)N1CCCCC1?
**A.** GI50 (SF-268): 18.4 µM (inactive); GI50 (M14): 16.4 µM (inactive); GI50 (NCI-H226): 7.41 µM (inactive); GI50 (CAKI-1): 47.6 µM (inactive); GI50 (NCI-H23): 19.1 µM (inactive); GI50 (SR): 18.6 µM (inactive); GI50 (XF498): 16.1 µM (inactive); GI50 (M19-MEL): 17.1 µM (inactive); GI50 (IGROV-1): 16 µM (inactive); GI50 (DMS-273): 16.7 µM (inactive); GI50 (Malme-3M): 18.9 µM (inactive); GI50 (SF-295): 83 µM (inactive); GI50 (HOP-18): 17.9 µM (inactive); GI50 (TK-10): 18 µM (inactive); GI50 (SF-539): 20.2 µM (inactive); GI50 (HT-29): 17.9 µM (inactive); GI50 (SK-MEL-2): 16.5 µM (inactive); GI50 (NCI-H460): 17.5 µM (inactive); GI50 (OVCAR-8): 17.5 µM (inactive); GI50 (NCI-H522): 14.7 µM (inactive); GI50 (SN12C): 17.7 µM (inactive); GI50 (UACC-62): 16 µM (inactive); GI50 (SK-MEL-5): 16.1 µM (inactive); GI50 (ACHN): 16.5 µM (inactive); GI50 (SNB-75): 21.8 µM (inactive); GI50 (HOP-92): 13.7 µM (inactive); GI50 (K562): 28.4 µM (inactive); GI50 (HOP-62): > 100 µM (inactive); GI50 (DMS-114): 13.5 µM (inactive); GI50 (LXFL 529): 15.9 µM (inactive); GI50 (HCT-15): 16.4 µM; GI50 (RPMI-8226): 22.3 µM (inactive); GI50 (CCRF-CEM): 23.8 µM (inactive); GI50 (A549): 91.8 µM (inactive); GI50 (OVCAR-3): 16 µM (inactive); GI50 (HL-60): 11.4 µM (inactive); GI50 (SNB-19): 86.9 µM (inactive); GI50 (COLO 205): 15.2 µM (inactive); GI50 (SW-620): 17.8 µM (inactive); GI50 (U-251): 41.8 µM (inactive); GI50 (SK-OV-3): 75.7 µM (inactive); GI50 (LOX IMVI): 16.3 µM (inactive); GI50 (RXF 393): 18.2 µM (inactive); GI50 (SK-MEL-28): 14.8 µM (inactive); GI50 (OVCAR-5): 17.6 µM (inactive); GI50 (786-0): 16.3 µM (inactive); GI50 (OVCAR-4): 19.1 µM (inactive); GI50 (KM-20L2): 17.2 µM (inactive); GI50 (UACC-257): 14.7 µM (inactive); GI50 (UO-31): 20.3 µM (inactive); GI50 (HCT-116): 19.7 µM (inactive); GI50 (DLD-1): 17.3 µM (inactive); GI50 (KM12): 16.5 µM (inactive); GI50 (MOLT-4): 19 µM (inactive)
